Results: article PMC3314694, “Small Molecule Antagonists of the Wnt/Beta-Catenin Signaling Pathway Target Breast Tumor-Initiating Cells in a Her2/Neu Mouse Model of Breast Cancer” (PLoS ONE, 2012)

Assays:
[1] = system: tumorsphere-derived cells; experiment: Sphere forming assay, tumorsphere-derived cells; assay type: cell-based, mouse
Source text: (§1) To determine whether Wnt/β-catenin signaling was required for BTIC and mammary epithelial stem and progenitor cell function in vitro, we examined the effect of agonists and antagonists of Wnt/β-catenin signaling on sphere formation, which when performed under appropriate conditions is thought to be an attribute of stem/progenitor cells and TICs, [38], [39], [40]. We seeded dispersed cells dissociated from mammospheres and tumorspheres into media containing either Dkk1 or Wnt3a at concentrations previously shown to be sufficient to inhibit or activate the Wnt/β-catenin signaling pathway, respectively, [42]. Dkk1 is a secreted protein inhibitor [43], and Wnt3A is a stimulatory ligand of Wnt/β-catenin signaling. […] We used the small molecule BIO to inhibit GSKβ, a negative regulator of Wnt/β-catenin signaling.
(§2) We similarly tested pharmacological agents, which target Wnt/β-catenin signaling (PKF118–310, PKF115–584, CGP049090), for their affect on sphere formation. These inhibitors are specific antagonists of Wnt/β-catenin signaling that interrupt the […] step in pathway activation, namely the interaction between β-catenin and Tcf/Lef transcription factors. We seeded freshly isolated primary tumor cells and primary mammary epithelial cells, as well as mammosphere- and tumorsphere-derived cells into medium containing various concentrations of the inhibitors.
(§3) The #3 and #4 mammary glands from virgin female FVB/N mice (6–8 weeks old) and mammary tumors were isolated as described previously, [56]. Mammospheres and tumorspheres were established from the bulk primary mammary epithelial and tumor cell population respectively as described previously. Serial passage of the mammospheres and tumorspheres was accomplished by mechanically dissociated the cells from spheres using titruation and reseeding the dispersed cells into fresh medium. Passage of the spheres was limited to 3–5 serial passages before the cells were harvested and RNA prepared. To induce a differentiation program in mammospheres in vitro, intact mammospheres were collected by centrifugation, the spheres were dissociated and the dispersed cells were plated at a density of 150,000 cells/ml on rat-tail collagen (Roche, Basel, Switzerland) coated 60 mm Petri dishes, [59]. The cells were incubated for a week before they were harvested and used to prepare cellular RNA for analyses.
(§4) Sphere and colony forming assays were completed as previously described. Dkk1 and Wnt3A were obtained from RnDSystems (Minneapolis, Minnesota). PKF118–310, PKF115–584 and CGP049090 were a gift from Novartis (Basel, Switzerland).
(§5) The 50% inhibitory concentration (IC50) of compounds was calculated using GraphPad Prism5 software. X-axis values were X = Log(X) transformed and then fit with a dose-response curve. The DMSO vehicle control was included to aid IC50 calculation and was assigned a 1 nM concentration of the tested compound.

[2] = system: mammosphere-derived cells; experiment: Sphere forming assay, mammosphere-derived cells; assay type: cell-based, mouse
Source text: as §1, §2, §3, §4, §5

[3] = system: primary tumor cells (BTIC); experiment: Ex vivo treatment of primary tumor cells and transplant into syngeneic mice; assay type: in vivo, mouse
Experimental: We incubated freshly isolated primary tumor cells under sphere forming conditions in presence of vehicle (DMSO) or PKF118–310 (1 µM or 2.5 µM concentrations). After 4 days the spheres were collected, dissociated and equal numbers (5,000) of viable PKF118–310- and vehicle-treated cells were injected sub-cutaneously into the syngeneic mice. Upon endpoint, when the tumor in any individual mouse reached 10% of its weight (∼6 weeks) all the animals were sacrificed and the tumors harvested.
as §4

primary tumor cells [4] = experiment: Sphere forming assay, primary tumor cells; assay type: cell-based, mouse; conditions: for IC50: primary tumor cells; for selectivity (IC50 MMS/IC50 TMS) for primary tumor cells over primary mammary epithelial cells: sphere forming assays
Source text: as §2, §3, §4, §5

[5] = system: primary mammary epithelial cells; experiment: Secondary sphere-forming assay (self-renewal), primary mammary epithelial cells; assay type: cell-based, mouse; conditions: 1 µM during 4-day primary sphere assay; secondary spheres in medium lacking inhibitor
Source text: (§6) To learn whether the inhibitory compounds affected the self-renewal of sphere-forming cells, we investigated the capacity of cells exposed to the compounds to serially form spheres. In short, dispersed primary mammary epithelial cells and primary tumor cells were exposed to PKF118–310 during a 4-day primary sphere-forming assay. The spheres that formed were counted, the cells dissociated from the spheres and the dispersed cells plated to form secondary spheres in fresh medium lacking the inhibitors.

BTICs in tumors = experiment: Secondary transplant of tumor cells harvested from treated mice; assay type: in vivo; conditions: 10,000 cells/mouse from treated mice
Source text: The principal objective of our experiments was to learn whether inhibition of Wnt/β-catenin signaling targeted BTICs in tumors. […] We reasoned that if PKF118–310 selectively targeted BTICs in vivo, viable cells isolated from PKF118–310 treated tumor-bearng hosts would engraft and elicit tumor growth less efficiently relative to their vehicle-treated counterparts. To this end, we transplanted tumor cells by injecting them sub-cutaneously (n = 20, PKF118–310-treated; n = 20, vehicle-treated) between the shoulders of syngeneic mice (10,000 cells/mouse) and measured tumor latency in the PKF118–310-treated and vehicle-treated transplant cohorts. […]
Freshly isolated primary tumor (100,000) cells were suspended in 50% Matrigel (BD, Franklin Lakes, New Jersey), 45% phosphate buffered saline pH7.4 (PBS) and 5% fetal bovine serum (FBS) [Invitrogen, Carlsbad, California], and the cells were injected subcutaneously between the shoulders into syngeneic 6–8 week-old female mice (FVB/N strain). Mice were monitored by palpation weekly for the occurrence of tumors. […] Tumor volume was measured twice weekly. […] Viable tumor cells (assessed by TrypanBlue staining) from vehicle- and compound-treated mice were isolated as described above and 10,000 cells were transplanted subcutaneously into syngeneic mice (n = 20, treated; n = 20, untreated).

[6] = system: pre-established breast tumors; experiment: In vivo compound administration to tumor-bearing mice; parameters: species or system mouse
Source text: To determine whether PKF118–310 affected the growth of pre-established breast tumors and reduced BTIC frequency in vivo, we transplanted primary breast tumor cells into syngeneic mice and treated these hosts with PKF118–310 after the tumors had reached a volume of ∼1 cm^3. […] After treatment ceased the tumors in mice administered the vehicle were ∼3 fold larger than those in PKF118–310-treated mice (Fig. 4B, *p<0.05).
To uncover potential mechanisms whereby the compound halted tumor growth, we prepared sections from the tumors of both cohorts and stained them with Hematoxylin and Eosin (H&E). […] In some cases the cell-free areas contained material, characteristic of milk protein secretions. […] We also examined whether inhibition of tumor growth was accomplished by a reduction in cell proliferation and/or induction of apoptosis. We stained tumor sections for markers of proliferation (Ki67) and apoptosis (cleaved caspase-3 and TUNEL). We observed a significant decrease in the frequency of Ki67 positive tumor cell nuclei in the PKF118–310 treated tumor-bearing mice compared to their vehicle-treated counterparts (Fig. 4D&E). […] Tumors from PKF118–310 treated mice comprised approximately 3–4-fold fewer Ki67-positive cells than tumors from vehicle-treated mice. We similarly simultaneously stained the tumor sections with antibodies to a luminal lineage marker (CK8) and with those to each of two myoepithelial lineage markers (CK14 and alpha-smooth muscle actin [alpha-SMA). The vast majority of the cells in sections prepared from tumors of the vehicle-treated mice expressed only the luminal lineage marker in keeping with previous findings (data not shown). Tumor sections prepared from tumors of the mice administered PKF118–310 also only expressed the luminal lineage marker.
To learn whether administration of PKF118–310 to tumor-bearing mice inhibited Wnt/β-catenin signaling in tumors, we measured the abundance of Wnt/β-catenin target gene transcripts in the tumor cells.
Freshly isolated primary tumor (100,000) cells were suspended in 50% Matrigel (BD, Franklin Lakes, New Jersey), 45% phosphate buffered saline pH7.4 (PBS) and 5% fetal bovine serum (FBS) [Invitrogen, Carlsbad, California], and the cells were injected subcutaneously between the shoulders into syngeneic 6–8 week-old female mice (FVB/N strain). Mice were monitored by palpation weekly for the occurrence of tumors. When tumors reached roughly 1 cm^3, the mice were administered either the vehicle (0.1% DMSO) or PKF118–310 (0.85 mg/kg) dissolved in 0.1% DMSO by intra-tumoral injection for 5 consecutive days followed by a 2-day rest period before compound administration was repeated once. Tumor volume was measured twice weekly. At the end of the 12-day treatment cycle the mice were sacrificed and their tumors harvested for analysis. […] Viable tumor cells (assessed by TrypanBlue staining) from vehicle- and compound-treated mice were isolated as described above and 10,000 cells were transplanted subcutaneously into syngeneic mice (n = 20, treated; n = 20, untreated).
Paraformaldehyde fixed tumor fragments were embedded in paraffin, sectioned and stained with H&E. The tumor sections were de-paraffinized and rehydrated in ethanol (100-70% gradient) before immunofluorescent analysis. Antigen retrieval was performed in Antigen Unmasking Solution (Vector, Burlingame, California). Slides were blocked with 3% normal goat serum (Dako, Denmark) and incubated with primary antibodies for 2 hours at room temperature (Ki67, 1∶200 [ABCAM, Cambridge, Massachusetts]. Secondary antibodies (Invitrogen) were used at a 1∶200 dilution for 1 hour at room temperature.

primary tumor cells [7] = experiment: Secondary sphere-forming assay (self-renewal), primary tumor cells; assay type: cell-based, mouse; conditions: 1 µM during 4-day primary sphere assay; secondary spheres in medium lacking inhibitor
Source text: as §6

[8] = system: primary mammary epithelial cells; experiment: Sphere forming assay, primary mammary epithelial cells; assay type: cell-based, mouse
Source text: as §2
The #3 and #4 mammary glands from virgin female FVB/N mice (6–8 weeks old) and mammary tumors were isolated as described previously, [56]. Mammospheres and tumorspheres were established from the bulk primary mammary epithelial and tumor cell population respectively as described previously. Serial passage of the mammospheres and tumorspheres was accomplished by mechanically dissociated the cells from spheres using titruation and reseeding the dispersed cells into fresh medium. Passage of the spheres was limited to 3–5 serial passages before the cells were harvested and RNA prepared. […]

[9] = 0.85 mg/kg, qRT-PCR, versus vehicle

Row | Molecule | effect on sphere formation [1] | effect on sphere formation [2] | IC50 (primary tumor cells [4]) | selectivity (IC50 MMS/IC50 TMS) for primary tumor cells over primary mammary epithelial cells (primary tumor cells [4]) | IC50 [1] | IC50 [2] | IC50 [8] | also measured
1 | O=C1Nc2cc(Br)ccc2/C1=C1/Nc2ccccc2/C1=N\O [BIO] | stimulated sphere formation | stimulated sphere formation |  |  |  |  |  | 
2 | Cn1ncnc2c(=O)n(C)c(=O)nc1-2 [PKF118–310] |  |  | 0.58 µM | 2–3 fold | 0.94 µM | 0.54 µM | 1.54 µM | tumor latency versus vehicle-treated cells ([3]; cells incubated with 1 µM for 4 days): longer latency; tumor size at endpoint, smaller than vehicle-treated ([3]; cells incubated with 1 µM for 4 days, 5,000 viable cells s.c.): approximately 50%; tumor mass at endpoint ([3]; cells incubated with 1 µM for 4 days, 5,000 viable cells s.c., ∼6 weeks, control 0.49 g): 0.26 g; tumor initiation after transplant ([3]; cells incubated with 2.5 µM for 4 days, 5,000 viable cells s.c., ∼6 weeks): failed to initiate tumor growth in any of the host mice; secondary mammosphere formation relative to vehicle [5]: at the same frequency as the vehicle-treated mammary epithelial cells; mice remaining tumor free (BTICs in tumors; 12 week follow-up): 85%; mice forming tumor grafts (BTICs in tumors; vehicle 20/20): 3 of 20; effect on tumor growth ([6]; 0.85 mg/kg intra-tumoral, 12 days (5 on, 2 off, 5 on)): inhibited tumor growth; tumor regression during treatment ([6]; 0.85 mg/kg, 12 days): did not induce significant tumor regression; abundance of axin2 transcripts in tumors [6, 9]: significantly lower; abundance of cyclin D1 transcripts in tumors [6, 9]: significantly lower; tumor volume after treatment, vehicle larger than treated ([6]; 0.85 mg/kg, t = 12 days): ~3 fold; Ki67-positive cells, fewer than in vehicle tumors ([6]; 0.85 mg/kg, tumor sections): 3–4 fold; cleaved caspase-3 or TUNEL staining (apoptosis) in tumors ([6]; 0.85 mg/kg, tumor sections): did not observe any positive staining; reduction of capacity to form secondary spheres relative to vehicle (primary tumor cells [7]): ~10 fold
3 | PKF115–584 |  |  | 0.31 µM | 6–7 fold | 1.34 µM | 1.39 µM | 2.05 µM | 
4 | Wnt3A: stimulatory ligand of Wnt/β-catenin signaling, from RnDSystems (protein, UniProt P56704 19-352, looked up) Protein Wnt-3a: SYPIWWSLAVGPQYSSLGSQPILCASIPGLVPKQLRFCRNYVEIMPSVAEGIKIGIQECQHQFRGRRWNCTTVHDSLAIFGPVLDKATRESAFVHAIASAGVAFAVTRSCAEGTAAICGCSSRHQGSPGKGWKWGGCSEDIEFGGMVSREFADARENRPDARSAMNRHNNEAGRQAIASHMHLKCKCHGLSGSCEVKTCWWSQPDFRAIGDFLKDKYDSASEMVVEKHRESRGWVETLRPRYTYFKVPTERDLVYYEASPNFCEPNPETGSFGTRDRTCNVSSHGIDGCDLLCCGRGHNARAERRREKCRCVFHWCCYVSCQECTRVYDVHTCK | stimulated sphere formation | stimulated sphere formation |  |  |  |  |  | 
5 | Dkk1: secreted protein inhibitor of Wnt/β-catenin signaling, from RnDSystems (protein, UniProt O94907 32-266, looked up) Dickkopf-related protein 1: TLNSVLNSNAIKNLPPPLGGAAGHPGSAVSAAPGILYPGGNKYQTIDNYQPYPCAEDEECGTDEYCASPTRGGDAGVQICLACRKRRKRCMRHAMCCPGNYCKNGICVSSDQNHFRGEIEETITESFGNDHSTLDGYSRRTTLSSKMYHTKGQEGSVCLRSSDCASGLCCARHFWSKICKPVLKEGQVCTKHRRKGSHGLEIFQRCYCGEGLSCRIQKDHHQASNSSRLHTCQRH | reduced sphere formation | reduced sphere formation |  |  |  |  |  | 
